Key:
[1] = system: OE21, OE33 or FLO-1 cells; experiment: Clonogenic survival assay with IR, three oesophageal cancer cell lines; assay type: cell-based, human
Method: Clonogenic survival assay. OE21, OE33 or FLO1 cells were treated with 2 µM Ru1 for 24 h before irradiation with 0-8 Gy using a 137Cs γ-irradiator (IBL637, CIS Bio Int.; dose rate = 0.809 Gy min−1). 1 h after irradiation, cells were detached using Trypsin and re-seeded in 6 well plates at a density of 300 – 20,000 cells/well in triplicate in an incrementally greater number of cells with increasing IR dose to ensure adequate colony formation. Cells were incubated for 7–14 days after re-seeding to allow colony formation before being fixed with 10% methanol, 10% acetic acid and stained with 0.4% methylene blue. OE33 cells required an additional formaldehyde fixation (4% in PBS, 5 mins) step before the addition of methylene blue solution or colony detachment occurred. Colonies containing 50 cells or greater were counted using a Gelcount instrument and accompanying software (Oxford Optronix). Plating efficiencies were determined for each treatment condition and normalised to an untreated control to provide the surviving fraction (S. F.). S.F. versus radiation dose curves were plotted in GraphPad Prism and fit using a second order polynomial function (R2 values > 0.99). Dose modifying factors (DMF) at a SF=0.1 were calculated using the equation: Dose modifying factor (DMF) = IR dose to give S.F. 0.1/IR dose plus compound to give S.F.0.1. […]

[2] = system: OE21 cells; experiment: Apoptosis (AnnexinV staining, karyorrhexis, cleaved caspase 3); assay type: cell-based, human; conditions: OE21, 21 μM, 24 h
Method: phototoxic contribution to bio-activity. Doxorubicin (Sigma) was prepared in doubly-distilled water (10 mg/mL, 17.4 mM).
[Ru(phen)2(dppz)]2+ (2 mM) was prepared in doubly-distilled water.
Sub-cellular fractionation. OE21 or OE33 cells were treated in 12 well plates, washed with cold PBS (2x2 mls) and nuclear and cytosol fractions obtained using the Nuclei EZ Lysis kit (Sigma). Briefly, cells were washed with acidified PBS (pH 2.5) to remove the membrane-bound fraction and 0.4 ml EZ lysis buffer was added. Cells were detached by scraping, collected into eppendorfs, vortexed briefly and left for 5 minutes on ice. Samples were centrifuged (500g, 5 mins) and the supernatant (cytosol fraction) aspirated. The pellet (nuclear fraction) was re-suspended in 200 µl RIPA buffer. […] Ruthenium content was determined by ICP-MS analysis as described in a recent […]
DNA fibre assay. […] CldU- and IdU-labelled tracts were visualised using a Leica DMRB microscope with a DFC360FX camera and tract length measured by ImageJ software. […]
Western blotting. […] Protein content was determined by BCA assay. […]
AnnexinV staining. […] This was incubated for 15 mins at room temperature, 400 µl binding buffer added and analysed by flow cytometry (FL1 and FL3 channels for FITC and PI respectively). […]

[3] = system: MCF7 cells; experiment: Micronuclei formation, MCF7; assay type: cell-based; conditions: MCF7, 40 μM Ru1, 24 h incubation
Method: Microscopy and immunofluorescence. Cells were seeded on ibidi 35 mm µ-dishes (Thistle Scientific), allowed to adhere for 24 h and treated as stated in the main text. Cell media was removed, cells washed with PBS and fixed with formaldehyde (4%, 10 mins). Cells were permeablised with Triton (0.5% in PBS, 5 mins) and washed with PBS. Samples were blocked with BSA (3% in PBS-T) for 1 h before incubation with primary antibody (either anti-α-tubulin or anti-γ H2AX, 1/500 dilution) in BSA (3% in PBS-T) for 1 h. Samples were washed 3x in PBS-T and incubated with Alexa Fluor-conjugated secondary antibodies (3% in PBS-T, 1 h, 1/250 dilution). After further washing (3x5 min PBS-T) samples were co-stained with DAPI (5 ng/ml, 2 min), fresh PBS added and visualised by confocal microscopy. Samples were visualised using a Zeiss LSM 780 or LSM 710 inverted confocal microscope and EC Plan-Neofluar 40x/1.30 Oil objectives. […]
For the determination of mutation induction, from the untreated and each treated condition, 2x10^5 cells were plated in 10 x 100 mm dishes in selective media (regular media

## [Ru(phen)2(tpphz)]^2+ [Ru1]
[1]; 2 μM, 24 h, no IR, all three cell lines
  surviving fraction (S.F.), single-agent: > 0.87
[1]; Ru1 2 μM or sub-cytotoxic cisplatin (500 nM OE21 and OE33, 300 nM FLO-1), 24 h before IR, range over three cell lines
  dose modification factor (DMF) at surviving fraction of 0.1: 1.19–1.31
[2]
  apoptosis: low levels of apoptosis
[3]
  Cells with micronuclei, Percentage: 6.2%
